Measured values as given in PMC10290335 (Malaria Journal, 2023).
Values after ≈ are worked out from the molar mass of the structure shown. “Also recorded” adds a separate entry of the source. Like-named read-outs stand apart in the source and are kept apart here.

Key:
[1] = system: An. gambiae; conditions: cited from earlier work
[2] = system: An. stephensi; conditions: cited from earlier work
[3] = target: T1, rh CYP3A5 supersomes (Homo sapiens, UniProt P20815); test: Ivermectin metabolism by recombinant human CYP3A5 supersomes; format: in vitro ADME; conditions: 10 µM ivermectin
T1 construct: purchased Corning Life Sciences B.V. (Amsterdam, The Netherlands)
T1 sequence (P20815 whole entry): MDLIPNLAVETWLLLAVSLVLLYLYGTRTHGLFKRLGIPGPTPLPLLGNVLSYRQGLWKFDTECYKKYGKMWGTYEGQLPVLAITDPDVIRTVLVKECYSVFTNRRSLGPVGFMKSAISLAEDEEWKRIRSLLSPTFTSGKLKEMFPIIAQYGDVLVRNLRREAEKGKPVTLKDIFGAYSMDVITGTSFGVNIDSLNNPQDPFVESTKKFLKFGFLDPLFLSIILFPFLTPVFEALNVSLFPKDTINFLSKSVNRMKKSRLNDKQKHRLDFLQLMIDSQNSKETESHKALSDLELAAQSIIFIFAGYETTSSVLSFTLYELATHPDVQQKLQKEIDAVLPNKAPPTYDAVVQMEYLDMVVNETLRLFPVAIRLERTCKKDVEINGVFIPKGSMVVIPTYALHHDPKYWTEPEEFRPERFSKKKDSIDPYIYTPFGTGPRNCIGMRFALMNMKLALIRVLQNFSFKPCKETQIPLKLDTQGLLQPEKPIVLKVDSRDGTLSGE
Method: (§1) The assay mixture was heated for 10 min at 37 °C in a Thermomixer 5436 (Eppendorf, Hamburg, Germany) and the reaction was initiated by the addition of supersomes. Samples (50 μL) were taken after 0, 15, 30, 45, and 60 min. […] After centrifugation (30 min at 3220×g and 15 °C, 5810 R Eppendorf centrifuge), sample supernatants (10 µL) were analysed by LC–MS/MS. Metabolite production was quantified by dividing the metabolite peak area with the ISTD peak area. Each metabolism assay was performed in triplicate.

[4] = plasma, single oral 12 mg ivermectin, mean ± SD; cited from earlier work
[5] = cited from earlier work
[6] = target: T2, rh CYP3A4 supersomes (Homo sapiens, UniProt P08684); test: Ivermectin metabolism by recombinant human CYP3A4 supersomes; format: in vitro ADME; conditions: 10 µM ivermectin
T2 construct: purchased Corning Life Sciences B.V. (Amsterdam, The Netherlands)
T2 sequence (P08684 whole entry): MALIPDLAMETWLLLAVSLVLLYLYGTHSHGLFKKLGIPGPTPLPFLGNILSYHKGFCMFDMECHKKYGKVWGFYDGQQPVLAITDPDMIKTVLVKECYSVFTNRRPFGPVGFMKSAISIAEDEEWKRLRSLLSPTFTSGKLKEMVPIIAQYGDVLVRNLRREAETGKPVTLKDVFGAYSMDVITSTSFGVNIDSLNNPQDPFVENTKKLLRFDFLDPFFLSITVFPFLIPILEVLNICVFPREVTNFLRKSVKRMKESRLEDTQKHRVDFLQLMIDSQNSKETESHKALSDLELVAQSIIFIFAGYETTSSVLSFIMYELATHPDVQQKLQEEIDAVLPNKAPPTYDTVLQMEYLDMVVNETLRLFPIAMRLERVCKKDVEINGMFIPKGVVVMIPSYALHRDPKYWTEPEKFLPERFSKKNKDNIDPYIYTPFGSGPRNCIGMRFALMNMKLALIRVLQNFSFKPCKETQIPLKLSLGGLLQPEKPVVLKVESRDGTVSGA
Method: as §1

[7] = system: Anopheles stephensi mosquitoes; test: 3-day LC50 in Anopheles stephensi (membrane feeding, dilutions); format: in vivo; conditions: 72 h after blood feeding
Method: A pilot test was performed to evaluate optimal dilutions matching the expected LC50 values (data not shown).
Student's t test was adopted to test the significance of all mean survival differences between groups, using the R package ggsignif (version 0.6.4). Survival analyses, summary and visualisation of survival analysis were computed using the GNU R packages survival (version 3.1-8) and survminer (version 0.4.9). Replicates were pooled and analysed by the logrank test and the hazard ratio with 95% confidence intervals. LC50 in An. stephensi mosquito were approximated with regression analysis, using GNU R package drc (version 3.0-1) for analysis of dose–response curves (Additional file 1: Fig. S3). The time above LC50 estimation (Additional file 1: Fig. S4) was computed using the GNU R package data.table (version 1.14.6).

[8] = system: Aedes aegypti; conditions: cited from earlier work
[9] = system: Anopheles stephensi mosquitoes; test: Anopheles stephensi membrane feeding screening assay (survival and activity); format: in vivo; conditions: for Average activity score: score +2 flying, +1 moving, 0 dead
Method: The final DMSO content in blood was 0.1%, which was also the DMSO concentration used for the negative control assays (0.1% DMSO in blank blood). Inclusion of blank fractions as additional negative controls were not considered, because it would not have been feasible to also test the corresponding blank fraction for each metabolite fraction (F1–F9). The blood preparations were rotated at room temperature for 20 min to ensure a uniform metabolite distribution (Rotator Genie, Scientific Industries, Bohemia, USA). The dissolution of the metabolites was confirmed by LC–MS/MS.
Around 50–70 female mosquitoes aged 5–10 days post-emergence were transferred with a mouth aspirator into 20 mL paper cups. A piece of mosquito netting was used to cover the cups. Mosquitoes were starved for 24 h before treatment. The mosquito blood meals were heated in a water bath (SAHARA PPO S5P Heated Bath Circulators, Thermo Fisher Scientific, New Hampshire, USA) for 20 min at 39 °C. A Petri dish (35 mm × 10 mm, BD, Franklin Lakes, USA) was filled with 3 mL of warm blood, sealed with a piece of sealing film (Parafilm®, Huberlab AG, Aesch, Switzerland). The Petri dish was placed upside down on top of the net sealing the paper cup. Female mosquitoes were allowed to feed for 20 min on the blood through the net and the sealing film. The feeding was conducted in a climate chamber (HPP110, Memmert GmbH + Co.KG, Schwabach, Germany) at 27 °C, 70% humidity, and 30% light intensity. After feeding, the cups were put on ice to immobilise the mosquitoes and only the fully engorged mosquitoes were selected for the assay. The mosquitoes were returned to the climate chamber to assess their activity and survival for 3 days.
In the framework of screening assays, mosquitoes were treated with blood containing each metabolite corresponding to Cmax levels observed in PK samples. […] In screening assays, eleven treatments were evaluated with three replicates using three batches of 50–70 mosquitoes.

[10] = Clinical pharmacokinetics of ivermectin metabolites in blood of healthy volunteers; format: in vivo, human; conditions: human blood after single oral 12 mg ivermectin
Method: Peripheral venous blood samples were collected before dosing and after 1, 2, 4, 6, 8, 12, 24, 48 and 72 h. Blood samples (50 µL) were extracted by the addition of 150 µL ISTD solution. Samples were mixed for 1 min and centrifuged for 30 min at 3220×g and 15 °C (5810 R centrifuge). Twenty microlitres of supernatant were injected into the LC–MS/MS system to determine the signal intensity of the metabolites.
The different LC–MS/MS settings were applied for the metabolism, pharmacokinetic and metabolite fractioning assays (Additional file 1: Table S1, S2, S3). All analyses were performed on a modular HPLC (Shimadzu, Kyoto, Japan) composed of four pumps (2 × LC-30AD, 2 × LC-20AD), an autosampler (SIL 30-AC MP), a system controller (CBM-20A), two degassing units (DGU-20A5 and DGU-20A3R), a column oven (CTO-20AC), a low-pressure valve (FCV-12AH), and a fraction collector (FRC-12A). The HPLC system was connected to an API 5000 triple quadrupole mass spectrometer (AB Sciex, Ontario, Canada) that was equipped with a turbo electrospray ionization source. The system was operated with Analyst Software 1.7 (AB Sciex) and acquired data were analysed using MultiQuant Software 3.0.3 (AB Sciex).
The integral method “linear up log down” was used on area/internal standard area ratio.
In total, three T0 blank blood samples originating from different PK study participants were used to resuspend the metabolites (Additional file 1: Table S5). The signal intensity was recorded for every metabolite by extracting the 50 µL blood with 150 µL of ISTD solution. The metabolite peak area was determined by LC–MS/MS (see section LC-MS/MS analysis of ivermectin). Moreover, the PK samples of all study participants were equally extracted and analysed to derive the maximal blood level (Cmax) from the blood level-time curves. Afterwards, the mean metabolite peak area of the spiked blank blood was compared with the mean peak area of the Cmax samples (Additional file 1: Table S5). The amount of each metabolite fraction was either reduced or increased to match the peak area of Cmax samples. If the metabolite was not detectable in PK samples, the amount of metabolite was adjusted to the lower limit of detection of the method. In this case, blank blood was spiked with the metabolite fraction to receive a signal intensity that is three times larger than the corresponding noise level.

In the case of `CCC(C)C1OC2(CCC1C)CC1CC(CC=C(C)C(OC3CC(OC)C(OC4CC(OC)C(O)C(C)O4)C(C)O3)C(C)C=CC=C3COC4C(O)C(C)=CC(C(=O)O1)C34O)O2` (centres unmarked) [Ivermectin, 22,23-dihydroavermectin B1a, reference compound], the 7-day-LC50 ([1]; blood fed from treated humans) is listed as 3.4 ng/mL, the 7-day-LC50 ([1]; spiked ivermectin experiments (in vitro mixture)) is listed as 15.9 ng/mL and the 4-day-LC50 [2] is listed as 7 ng/mL. For the same compound, the ivermectin metabolised ([3]; within 1 h) was 20%, the Cmax [4] was 70.7 ± 16.1 ng/mL and the Half-life [4] was 38.9 ± 20.8 h. The Tmax [4] was 4.4 ± 1.4 h, the estimated half-life [5] was 24 to 72 h and the peak concentration ([5]; single oral dose of 150 µg/kg) was “around 40 ng/mL”. The “time of peak concentration” value ([5]; single oral dose of 150 µg/kg) was “Approximately 4 h”, the ivermectin metabolised ([6]; within 1 h) was 80% and the “3-day LC50” value [7] was 3.07 ng/mL. The LC50 ([7]; Anopheles stephensi, 72 h) was ~3 ng/mL (≈ 3.43 nM), the “LC50 within 7-days” value [8] was 178 to 187 ng/mL and the Average activity score ([9]; 0 h post feeding) was 2.00. The Average activity score ([9]; 24 h post feeding) was 0.71 ± 0.05, the Average activity score ([9]; 24 h post feeding, listed as IVM) was 0.71 and the Average activity score ([9]; 48 h post feeding) was 0.03 ± 0.02. The Average activity score ([9]; 48 h post feeding, listed as IVM) was 0.03, the Average activity score ([9]; 72 h post feeding) was 0 and the “mean survival of mosquitoes after blood meal” value ([9]; blood meal at Cmax level) was “decreased”. The “mosquitoes dead after 72 h” value ([9]; blood meal at Cmax level (ivermectin 50 ng/mL), 72 h after treatment) was 100%.

With `CC[C@H](C)[C@H]1O[C@]2(CC[C@@H]1CO)C[C@@H]1C[C@@H](C/C=C(\C)[C@@H](O[C@H]3C[C@H](OC)[C@@H](O[C@H]4C[C@H](OC)[C@@H](O)[C@H](C)O4)[C@H](C)O3)[C@@H](C)/C=C/C=C3\CO[C@@H]4[C@H](O)C(C)=C[C@@H](C(=O)O1)[C@]34O)O2` [M9, 24-hydroxy-H2B1a] the “metabolite formation by CYP3A5” value [3] was “mainly produced by CYP3A5; also recorded: very effective”, the “metabolite formation by CYP3A4” value [6] was “only minor amounts” and the “detection in pharmacokinetic samples” value [10] was “Only traces”. It also gave an Average activity score ([9]; 0 h post feeding) of 2.00, an Average activity score ([9]; 24 h post feeding) of 1.92 and an Average activity score ([9]; 48 h post feeding) of 1.87. The Average activity score ([9]; 72 h post feeding) was 1.64.
